In patent US20240270821A1, “GIP/GLP1/GCG TRI-RECEPTOR AGONISTS AND USES THEREOF” (priority 2023, published 2024):
Read-outs that look alike come from different tables or passages of the source. Starred links: 1 amine or outer side, 2 acyl side, 3 side chain; linkers in the order of their positions; H or OH if unused. Non-standard residues stand in square brackets, D forms with d. Groups on a side chain read outwards from the residue. *: point of attachment. C20 diacid = O=C(O)CCCCCCCCCCCCCCCCCCC(=O)*; C18 diacid = O=C(O)CCCCCCCCCCCCCCCCC(=O)*; αMePhe(2-F) = C[C@](N)(Cc1ccccc1F)C(=O)O; γGlu = O=C(O)[C@H](CCC(=O)[*:2])N[*:1]; αMe4Pal = C[C@](N)(Cc1ccncc1)C(=O)O; αMeY = C[C@](N)(Cc1ccc(O)cc1)C(=O)O; 4Pal = N[C@@H](Cc1ccncc1)C(=O)O; αMeL = CC(C)C[C@](C)(N)C(=O)O; αMeS = C[C@](N)(CO)C(=O)O; Orn = NCCC[C@H](N)C(=O)O; AEEA = NCCOCCOCC(=O)O; Aib = CC(C)(N)C(=O)O

Assays:
Format in all cases: cell-based
hGIPR [1] = target: T1, hGIPR (Homo sapiens, UniProt P48546); assay: Functional cAMP activity in the presence of 1% HSA; details: read-out: cAMP Rel EC50, hGIPR
T1 sequence (P48546 22-466): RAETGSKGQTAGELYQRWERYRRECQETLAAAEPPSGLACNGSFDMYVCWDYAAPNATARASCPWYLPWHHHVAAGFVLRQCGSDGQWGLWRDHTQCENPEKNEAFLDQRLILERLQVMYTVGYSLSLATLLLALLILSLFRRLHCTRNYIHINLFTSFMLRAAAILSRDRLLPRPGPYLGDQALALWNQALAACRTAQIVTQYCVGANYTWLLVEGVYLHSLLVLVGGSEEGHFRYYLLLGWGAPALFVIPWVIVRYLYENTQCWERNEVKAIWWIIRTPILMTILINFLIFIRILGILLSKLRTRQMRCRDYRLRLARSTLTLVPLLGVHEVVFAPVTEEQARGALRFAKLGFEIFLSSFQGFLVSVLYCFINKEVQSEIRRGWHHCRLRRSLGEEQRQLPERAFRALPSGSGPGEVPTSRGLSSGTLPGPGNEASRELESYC

hGLP-1R [2] = target: T2, hGLP-1R (Homo sapiens, UniProt P43220); assay: Functional cAMP activity in the presence of 1% HSA; details: read-out: cAMP Rel EC50, hGLP-1R
human GcgR = human GcgR (Homo sapiens, UniProt P47871); assay: Functional cAMP activity in the presence of 1% HSA; details: read-out: cAMP Rel EC50, hGcgR
hGIPR [3] = target: T1, hGIPR; assay: Functional cAMP activation in the presence of 0.1% casein (no HSA); details: read-out: Relative cAMP EC50, hGIPR;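 for Relative cAMP EC50, hGIPR: intracellular cAMP rise after 30 min at 37 °C read by HTRF against a standard curve, scaled between buffer alone (0%) and top control ligand concentration (100%), four-parameter fit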;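 for Relative cAMP EC50, hGLP-1R: intracellular cAMP rise after 30 min at 37 °C read by HTRF, normalized between buffer only (0%) and maximal control ligand (100%), four-parameter variable-slope fit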;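 for Relative cAMP EC50, hGcgR: intracellular cAMP rise after 30 min at 37 °C, read by HTRF against a cAMP standard curve, scaled from buffer only (0%) to maximal control ligand response (100%)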
hGLP-1R [4] = target: T2, hGLP-1R; assay: as above; details: read-out: Relative cAMP EC50, hGLP-1R
hGcgR = hGcgR (Homo sapiens, UniProt P47871); assay: as above; details: read-out: Relative cAMP EC50, hGcgR;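 note: intracellular cAMP rise after 30 min at 37 °C, read by HTRF against a cAMP standard curve, scaled from buffer only (0%) to maximal control ligand response (100%)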
[5] = in the presence of 0.1% casein (no HSA), geometric mean
[6] = HEK-293 clonal cell line, 1% HSA, geometric mean of relative EC50
[7] = in the presence of 0.1% casein (no HSA), geometric mean of relative EC50

T2 sequence (P43220 24-463): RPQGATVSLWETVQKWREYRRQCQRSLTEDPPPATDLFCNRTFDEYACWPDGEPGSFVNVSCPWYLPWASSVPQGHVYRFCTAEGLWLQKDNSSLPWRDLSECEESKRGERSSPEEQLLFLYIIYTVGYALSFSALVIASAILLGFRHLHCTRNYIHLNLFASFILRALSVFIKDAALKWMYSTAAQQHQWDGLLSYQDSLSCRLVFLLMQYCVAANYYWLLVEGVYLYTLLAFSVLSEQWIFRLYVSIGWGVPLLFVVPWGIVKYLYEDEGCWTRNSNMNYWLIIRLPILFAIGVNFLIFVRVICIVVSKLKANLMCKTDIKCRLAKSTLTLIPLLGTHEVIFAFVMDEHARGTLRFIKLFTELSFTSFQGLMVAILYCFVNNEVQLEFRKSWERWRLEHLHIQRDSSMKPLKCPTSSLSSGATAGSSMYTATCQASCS
Chain of hGcgR (P47871 26-477): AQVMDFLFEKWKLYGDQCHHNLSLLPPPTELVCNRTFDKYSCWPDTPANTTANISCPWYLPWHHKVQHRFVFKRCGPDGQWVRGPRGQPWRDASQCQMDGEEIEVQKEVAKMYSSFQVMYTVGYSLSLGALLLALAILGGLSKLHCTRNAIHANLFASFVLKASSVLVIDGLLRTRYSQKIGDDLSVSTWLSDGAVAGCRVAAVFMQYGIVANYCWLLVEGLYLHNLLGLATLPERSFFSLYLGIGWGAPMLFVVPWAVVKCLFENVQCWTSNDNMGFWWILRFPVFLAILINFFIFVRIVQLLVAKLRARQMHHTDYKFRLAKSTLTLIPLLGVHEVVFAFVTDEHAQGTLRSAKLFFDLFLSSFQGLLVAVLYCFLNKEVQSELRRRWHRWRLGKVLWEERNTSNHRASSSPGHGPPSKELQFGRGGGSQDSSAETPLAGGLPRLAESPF
Chain of human GcgR (P47871 26-477): as above

Compound | EC50 (hGIPR [1]) | EC50 (hGLP-1R [2]) | EC50 (human GcgR) | EC50 (hGIPR [3]) | EC50 (hGLP-1R [4]) | EC50 (hGcgR) | EC50 (hGIPR [3]; [5]) | EC50 (hGLP-1R [4]; [5]) | EC50 (hGcgR; [5]) | EC50 (hGIPR [1]; [6]) | EC50 (hGLP-1R [2]; [6]) | EC50 (human GcgR; [6]) | EC50 (hGIPR [3]; [7]) | EC50 (hGLP-1R [4]; [7]) | EC50 (hGcgR; [7])
CC[C@H](C)[C@H](NC(=O)[C@H](Cc1ccccc1)NC(=O)[C@H](CCCN)NC(=O)C(C)(C)NC(=O)[C@H](CCC(N)=O)NC(=O)[C@H](C)NC(=O)[C@H](CCCCNC(=O)[C@H](CCC(=O)O)NC(=O)CC[C@H](NC(=O)CCCCCCCCCCCCCCCCC(=O)O)C(=O)O)NC(=O)[C@H](CCCN)NC(=O)[C@H](CC(=O)O)NC(=O)[C@H](CC(C)C)NC(=O)[C@](C)(CC(C)C)NC(=O)[C@@H](NC(=O)[C@](C)(CO)NC(=O)[C@H](Cc1ccncc1)NC(=O)[C@H](CC(=O)O)NC(=O)[C@H](CO)NC(=O)[C@@H](NC(=O)[C@](C)(Cc1ccccc1F)NC(=O)[C@@H](NC(=O)CNC(=O)[C@H](CCC(N)=O)NC(=O)C(C)(C)NC(=O)[C@@H](N)Cc1ccc(O)cc1)[C@@H](C)O)[C@@H](C)O)[C@@H](C)CC)C(=O)N[C@H](CCC(=O)O)C(=O)N[C@@](C)(Cc1ccc(O)cc1)C(=O)N[C@@H](CC(C)C)C(=O)N[C@@H](CCC(N)=O)C(=O)N[C@@H](CCC(=O)O)C(=O)NCC(=O)NCC(=O)N1CCC[C@H]1C(=O)N[C@@H](CO)C(=O)N[C@@H](CO)C(=O)NCC(=O)N[C@@H](CCC(=O)O)C(=O)N1CCC[C@H]1C(=O)N1CCC[C@H]1C(=O)N1CCC[C@H]1C(=O)N[C@@H](CCC(=O)O)C(=O)NCC(=O)N[C@H](C(=O)N[C@@H](CCC(=O)O)C(=O)N[C@@H](CCC(=O)O)C(=O)N[C@@H](CCC(=O)O)C(N)=O)[C@@H](C)O [Example 594] | 3.32 nM | 49.1 nM | 570 nM | 0.0541 nM | 0.561 nM | 8.35 nM |  |  |  |  |  |  |  |  | 
CC[C@H](C)[C@H](NC(=O)[C@H](CC(C)C)NC(=O)[C@H](Cc1ccc(O)cc1)NC(=O)[C@H](CCC(=O)O)NC(=O)[C@@H](NC(=O)[C@H](Cc1ccccc1)NC(=O)[C@H](C)NC(=O)[C@](C)(Cc1ccncc1)NC(=O)[C@H](CCC(N)=O)NC(=O)[C@H](C)NC(=O)[C@H](CCCCNC(=O)COCCOCCNC(=O)CC[C@H](NC(=O)CCCCCCCCCCCCCCCCC(=O)O)C(=O)O)NC(=O)[C@H](CCCCN)NC(=O)[C@H](CC(=O)O)NC(=O)[C@H](CC(C)C)NC(=O)[C@](C)(CC(C)C)NC(=O)[C@H](CCC(N)=O)NC(=O)[C@H](CO)NC(=O)[C@H](Cc1ccncc1)NC(=O)[C@H](CC(=O)O)NC(=O)[C@H](CO)NC(=O)[C@@H](NC(=O)[C@H](Cc1ccccc1)NC(=O)[C@@H](NC(=O)CNC(=O)[C@H](CCC(N)=O)NC(=O)C(C)(C)NC(=O)[C@@H](N)Cc1ccc(O)cc1)[C@@H](C)O)[C@@H](C)O)[C@@H](C)CC)C(=O)N[C@@H](C)C(=O)NCC(=O)NCC(=O)N1CCC[C@H]1C(=O)N[C@@H](CO)C(=O)N[C@@H](CO)C(=O)NCC(=O)N[C@@H](C)C(=O)N1CCC[C@H]1C(=O)N1CCC[C@H]1C(=O)N1CCC[C@H]1C(=O)N[C@@H](CO)C(=O)NCC(=O)N[C@@H](CO)C(N)=O [Example 827] | 19.5 nM | 53.8 nM | 424 nM |  |  |  | 0.12 nM | 0.593 nM | 4.23 nM |  |  |  |  |  | 
CC[C@H](C)[C@H](NC(=O)[C@H](CC(C)C)NC(=O)[C@H](Cc1ccc(O)cc1)NC(=O)[C@H](CCC(=O)O)NC(=O)[C@@H](NC(=O)[C@H](Cc1ccccc1)NC(=O)[C@H](C)NC(=O)[C@](C)(Cc1ccncc1)NC(=O)[C@H](CCC(N)=O)NC(=O)[C@H](C)NC(=O)[C@H](CCCCNC(=O)COCCOCCNC(=O)CC[C@H](NC(=O)CC[C@H](NC(=O)CCCCCCCCCCCCCCCCC(=O)O)C(=O)O)C(=O)O)NC(=O)[C@H](CCCCN)NC(=O)[C@H](CC(=O)O)NC(=O)[C@H](CC(C)C)NC(=O)[C@](C)(CC(C)C)NC(=O)[C@H](CCC(N)=O)NC(=O)[C@H](CO)NC(=O)[C@H](Cc1ccncc1)NC(=O)[C@H](CC(=O)O)NC(=O)[C@H](CO)NC(=O)[C@@H](NC(=O)[C@H](Cc1ccccc1)NC(=O)[C@@H](NC(=O)CNC(=O)[C@H](CCC(N)=O)NC(=O)C(C)(C)NC(=O)[C@@H](N)Cc1ccc(O)cc1)[C@@H](C)O)[C@@H](C)O)[C@@H](C)CC)C(=O)N[C@@H](C)C(=O)NCC(=O)NCC(=O)N1CCC[C@H]1C(=O)N[C@@H](CO)C(=O)N[C@@H](CO)C(=O)NCC(=O)N[C@@H](C)C(=O)N1CCC[C@H]1C(=O)N1CCC[C@H]1C(=O)N1CCC[C@H]1C(=O)N[C@@H](CO)C(=O)NCC(=O)N[C@@H](CO)C(N)=O [Example 869] | 14.1 nM | 114 nM | 571 nM |  |  |  | 0.142 nM | 2 nM | 9.94 nM |  |  |  |  |  | 
H-Y[Aib]QGTFTSD[4Pal]SR[αMeL]LDKK([AEEA-γGlu-C18 diacid])AQ[αMe4Pal]AFIEYLIE[Aib]GPSSGAPPPSGS-NH2 [Example 809] | 20.4 nM | 249 nM | 377 nM |  |  |  | 0.194 nM | 1.87 nM | 1.74 nM |  |  |  |  |  | 
H-Y[Aib]QGTFTSD[4Pal]SQ[αMeL]LDKK([AEEA-γGlu-C18 diacid])AQ[αMe4Pal]AFIEYLIE[Aib]GPSSGAPPPSGSEE-NH2 [Example 897] | 25.9 nM | 557 nM | 658 nM |  |  |  | 0.157 nM | 3.29 nM | 3.62 nM |  |  |  |  |  | 
H-Y[Aib]QGTFTSDYSI[αMeL]LDKQAAK([AEEA-AEEA-γGlu-C20 diacid])QFVEWLIA[Aib]GPSSGEPPPGSG-NH2 [Example 335] | 46.7 nM | 150 nM | 1410 nM |  |  |  | 0.292 nM | 0.461 nM | 6.11 nM |  |  |  |  |  | 
H-Y[Aib]QGT[αMePhe(2-F)]TSD[4Pal][αMeS]I[αMeL]LD[Orn]K([AEEA-γGlu-C18 diacid])AA[Aib]EFI[dE][αMeY]LIEGGPSSGAPPPSGTGQ-OH [Example 724] | 1.06 nM | 26.4 nM | 209 nM | 0.0102 nM | 0.256 nM | 1.74 nM |  |  |  |  |  |  |  |  | 
H-Y[Aib]QGT[αMePhe(2-F)]TSD[4Pal]SI[αMeL]LDKK([γGlu-γGlu-C18 diacid])AQ[Aib]AFIEYLTEGGPSSGEPPPSGSEE-NH2 [Example 633] |  |  |  |  |  |  |  |  |  | 1.63 nM | 41.2 nM | 1500 nM | 0.0186 nM | 0.421 nM | 10.2 nM
H-Y[Aib]QGT[αMePhe(2-F)]TSD[4Pal]SILLDKK([γGlu-γGlu-C18 diacid])AQ[Aib]AFIEYLEEGGPSSGAPPPSGTEE-NH2 [Example 609] | 6.19 nM | 121 nM | 647 nM | 0.0784 nM | 1.07 nM | 6.46 nM |  |  |  |  |  |  |  |  | 
